Data as given in patent US20230050846A1, “TREATMENT OF HEPATIC AND CARDIOVASCULAR DISORDERS” (LIFESEARCH, priority 2019, published 2023).
Where two headings read alike, the source gives them in different places. Peptide text beside a SMILES is read from it. * marks the point of attachment. Palmitoyl = CCCCCCCCCCCCCCCC(=O)*

Tests used:
human F1Fo-ATPase = molecular target: T1, human F1Fo-ATPase (Homo sapiens, UniProt P06576); assay: F1-ATPase activity assay (NADH-coupled, purified enzyme); type: biochemical; settings: 1 μM
T1 construct: Human F1Fo-ATPase was purified from HepG2 cells by immunocapture; endogenous in cells; host or cells: HepG2 cells; complex isolated by immunocapture with anti-ATP synthase antibody 12F4AD8AF8 (#ab109867, Abcam)
Source text: The mature human IF1 protein (SEQ ID NO: 5) was chemically synthesized by GenScript (Piscataway, N.J., USA) at >80% purity. The peptides derived from the mature human IF1 sequence (IF1-1-60, IF1-10-56, IF1-10-47) were produced by BachemAG (Bubendorf, Switzerland) with >90% purity.
Human F1Fo-ATPase was purified from HepG2 cells by immunocapture using mouse monoclonal anti-ATP synthase antibody (12F4AD8AF8, #ab109867, Abcam) according to manufacturer's instructions.
Measurement of F1-ATPase activity was assayed as previously described. Briefly, 10 μg of F1Fo-ATPase was prepared into 50 μL of activity assay buffer (10 mM HEPES, 150 mM NaCl, 5 mM KCl, 5 mM MgCl2, 0.5 mM phosphoenolpyruvate, 250 μM NADH, 100 μM ATP, 20 U lactate dehydrogenase, 120 U pyruvate kinase). The mixture was incubated at 37° C. for 30 min. Then the F1-ATPase activity was measured in a 96-well microplate by adding 5 μL of the mixture (1 μg of F1Fo-ATPase per point) per well to 200 μL of activity assay buffer at 37° C., and by adding 5 μL of buffer with or without peptide (1 μM each). The reduction in the absorbance of NADH was measured at 340 nm for 5 min with a Varioskan™ Flash Multimode Reader (Thermo Fisher Scientific). A slope was calculated for each well and the results expressed as a percentage of the control slope.

HepG2 cells = assay: Cytotoxicity assay (MTT); type: cell-based, human
Experimental: HepG2 cells were seeded in a 96-well plate at a density of 10,000 cells/well in growth medium (DMEM high-glucose, 10% fetal bovine serum). The next day, growth medium was changed and the peptide of formula (I) was added once with ascending dose for 24 h, 48 or 72 h or for 48 h with repeating once in 24 h. Similarly, the peptide of formula (II) was added once with ascending dose for 24 h or 48 h or for 48 h with repeating once in 24 h. Cells were incubated for 4 h with 5 mg/L MTT and 100 μL of DMSO was added in the well. Absorbance was recorded at 570 and 660 nm using the microplate spectrophotometer system (Varioscan flash). Cell viability was calculated by subtracting the 570 nm absorbance to the background measured at 660 nm.

[1] = tested on: primary mouse hepatocytes; assay: Steatotic primary mouse hepatocytes, intracellular triglyceride content; type: cell-based; settings: 1 μM, 24 h
Experimental: Primary mouse hepatocytes were isolated as described in Example 3 from mice fed western-diet for 11-weeks (Envigo #TD.88137 containing 0.2% cholesterol, 42% kcal from fat, 34% sucrose by weight). Primary mouse hepatocytes were seeded in a 12-well plate at a density of 600,000 cells/well in growth medium and treated for 24 h with apoA-I (10 μg/mL), peptide of formula (I) (1 μM) or peptide of formula (II) (1 μM).
For measurement of intracellular triglyceride content, cells were washed with PBS and scraped in 5% NP-40 lysis buffer and heated for 10 min at 85° C. Triglycerides were then quantified using triglyceride commercial kit (Biolabo #87319). Values were normalized to protein concentration in cell lysates.

[2] = Stability in plasma and serum (LC-HRMS); type: in vitro ADME, human and mouse; settings: 37° C.
Experimental: Peptide of Formula (I) or peptide of Formula (II) were prepared at a concentration of 200 μg/mL in PBS or mixed with EDTA plasma or serum from human (Etablissement Frangais du Sang, EFS) or mouse (C57BL/6J, cardiac puncture). Aliquots from PBS samples (40 μL) were incubated at 4° C. or 37° C. for 0, 1, 2 and 4 weeks. Aliquots from plasma and serum samples (50 μL) were incubated at 4° C. or 37° C. for 0, 1, 2, 4, 6, 12, 24 h.
A mixed solution of peptides of formula (I) and (II) was constituted and serially diluted in PBS to obtain seven standard solutions, ranging from 200 μg/mL to 0.2 μg/mL. In parallel, a mixed solution of labelled peptides of Formula (I) and (II) (Thermo Scientific, Biopolymers Darmstadt, Germany) was prepared in PBS at 100 μg/mL. The mixed solution of labelled peptides (25 μL) was added to 25 μL of standard solutions as well as to PBS, plasma and serum samples. Acetonitrile (150 μL) was added to each sample to precipitate plasma/serum proteins. After centrifugation (10,000×g, 4° C., 10 min), the clear supernatants (150 μL) were dried under a gentle stream of nitrogen (45° C.), reconstituted with 10% acetonitrile containing 0.1% formic acid (100 μL), and injected into the liquid chromatography-high-resolution mass spectrometry (LC-HRMS) system. LC-HRMS analyses were performed on an H-Class UPLC system (Waters Corporation, Milford, Mass., USA) by injection of 10 μL of samples onto an Acquity® Peptide CSH C18 column (2.1 mm×150 mm, 1.7 μm; Waters Corporation) held at 60° C. The mobile phase was composed of 5% acetonitrile as solvent A and 100% acetonitrile as solvent B, each containing 0.1% formic acid. The elution was carried out using a gradient of solvent B in solvent A over 20 min at a constant flow rate of 250 μL/min. […] HRMS detection was performed by a Synapt G2 HRMS Q-TOF mass spectrometer equipped with a Z-Spray interface for electrospray ionization (Waters Corporation). The resolution mode was applied in a mass-to-charge (m/z) ratio ranging from 200 to 4,000 at a mass resolution of 25,000 Full Width Half Maximum in the positive ionization mode. Ionization parameters were as follow: capillary voltage of 3 kV, cone voltage of 30 V, desolvatation gas flow of 900 L/hr, source temperature of 120° C., desolvatation temperature of 450° C., Nitrogen as desolvatation gas. Data were collected in the continuum mode at a rate of four spectra per second. […] Peptides were analyzed according to their major exact m/z (i 5 ppm, Table 1) and each peptide signal was normalized with that of its labelled internal standard. Peptide concentrations were calculated using calibration curves plotted from standard solutions (linear regression, 1/x weighted, origin excluded).

[3] = EDTA plasma, read-out: recovery of the peptide in plasma
[4] = serum, read-out: recovery of the peptide in serum

Compound: CCCCCCCCCCCCCCCC(=O)NCCCC[C@H](NC(=O)[C@H](CCC(=O)O)NC(=O)[C@H](CCCNC(=N)N)NC(=O)[C@H](CO)NC(=O)[C@H](CCC(N)=O)NC(=O)[C@H](C)NC(=O)[C@H](CCCNC(=N)N)NC(=O)[C@H](Cc1ccccc1)NC(=O)[C@H](Cc1ccc(O)cc1)NC(=O)[C@H](CCCNC(=N)N)NC(=O)[C@H](CCC(=O)O)NC(=O)[C@H](CCC(=O)O)NC(=O)[C@H](CCC(=O)O)NC(=O)[C@H](C)NC(=O)[C@H](CCC(N)=O)NC(=O)[C@H](CCC(=O)O)NC(=O)[C@H](CCCNC(=N)N)NC(=O)[C@H](CCCCN)NC(=O)CNC(=O)[C@H](Cc1ccccc1)NC(=O)[C@H](C)NC(=O)CNC(=O)CNC(=O)[C@H](C)NC(=O)[C@H](CCC(=O)O)NC(=O)[C@H](CCCNC(=N)N)NC(=O)[C@@H](NC(=O)[C@H](CO)NC(=O)CNC(=O)[C@H](C)NC(=O)CNC(=O)[C@H](CCCNC(=N)N)NC(C)=O)[C@@H](C)CC)C(N)=O [peptide of formula (II), CH3CO-[SEQ ID NO: 1]-K-[palmitoyl]-NH2] (Ac-RGAGSIREAGGAFGKREQAEEERYFRAQSREK(Palmitoyl)-NH2)
- stimulation of F1-ATPase activity (human F1Fo-ATPase): 43%
- cell viability (MTT) (HepG2 cells; 0.1 to 25 μM, single dose 24 or 48 h, or multiple doses at 24 and 48 h): no impact
- intracellular accumulation of triglycerides vs PBS control [1]: significantly reduced
- recovery at 24 h, 200 μg/mL [2, 3]: 50%
- recovery at 24 h, 200 μg/mL [2, 4]: 100%

Compound: Ac-RGAGSIREAGGAFGKREQAEEERYFRAQSRE-NH2 [peptide of formula (I), CH3CO-[SEQ ID NO: 1]-NH2]
- stimulation of F1-ATPase activity (human F1Fo-ATPase): 36%
- cell viability (MTT) (HepG2 cells; 0.1 to 50 μM, single dose 24, 48 or 72 h, or multiple doses at 24 and 48 h): no impact
- intracellular accumulation of triglycerides vs PBS control [1]: significantly reduced
- recovery at 24 h, 200 μg/mL [2, 3]: 10%
- recovery at 24 h, 200 μg/mL [2, 4]: 30%
